# Data: ChEMBL document CHEMBL1201862, “PubChem BioAssay data set” (2004)
# The source made the active and inactive calls.
# Key:
# [1] = target: Serine/threonine-protein phosphatase (Candida dubliniensis (strain CD36 / CBS 7987 / NCPF 3949 / NRRLY-17841) (Yeast), UniProt B9W6M3); assay: blockers of CaCl2-induced CDRE-lacZ signaling – S. cerevisiae, luminescence, secondary, dose response (AID 2388); type: functional, cell-based;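 further: yeast reporter cells carrying a calcineurin-responsive lacZ construct stimulated with calcium chloride; luminescent beta-galactosidase reporter signal in whole cells rather than isolated phosphatase activity; potency for inhibition where a drop in reporter signal means calcineurin blockade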
# [2] = target: ATP-dependent molecular chaperone HSP82 (Candida albicans (strain WO-1) (Yeast), UniProt C4YTQ8); assay: steroid-induced GRE reporter decrease in yeast – S. cerevisiae, luminescence, Hsp90 inhibitor project, dose response (AID 2400); type: functional, cell-based;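 further: beta-galactosidase luminescence from glucocorticoid response element reporter as proxy for Hsp90 function; inhibitor potency where signal loss means Hsp90 inhibition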
# [3] = fluconazole-exposed Candida albicans growth modulators – fluorescence, retest, confirmation (AID 2467); type: functional, cell-based
# [4] = NIH-3T3 fibroblast cytotoxicity, dose response, cytotoxicity control, cell-based, fluorescence, Alamar Blue, secondary assay (AID 2327); type: functional;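 further: NIH-3T3 mouse fibroblasts cultured with fluconazole at 8 µg/mL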
# [5] = target: Voltage-dependent T-type calcium channel subunit alpha-1H (Homo sapiens, UniProt O95180); type: functional;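 further: channel activity triggered by adding a high calcium stimulation buffer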
# [6] = toxicity toward cultured mammalian cells – cell-based, plate reader, cherry-pick samples, cytotoxicity control, dose response (AID 504397); type: functional
# [7] = target: T1, Cannabinoid receptor 1 (Homo sapiens, UniProt P21554); assay: SAR analysis of antagonists of the Cannabinoid Receptor 1 using an Image-Based Assay - Set 4. [Related pubchem assays (depositor defined):AID2013, AID2026]; type: functional
# [8] = target: T1, Cannabinoid receptor 1; assay: SAR analysis of agonists of the Cannabinoid Receptor 1 using an Image-Based Assay - Set 4. [Related pubchem assays (depositor defined):AID2013, AID2026]; type: functional
# [9] = target: T2, G-protein coupled receptor 35 (Homo sapiens, UniProt Q9HC97); assay: SAR analysis of Antagonists of the GPR35 Receptor using an Image-Based Assay - Set 6. [Related pubchem assays (depositor defined):AID2013, AID2026]; type: functional
# [10] = target: T3, Cannabinoid receptor 2 (Homo sapiens, UniProt P34972); assay: SAR analysis of antagonists of the Cannabinoid Receptor 2 using an Image-Based Assay - Set 3. [Related pubchem assays (depositor defined):AID2013, AID2026]; type: functional
# [11] = target: T3, Cannabinoid receptor 2; assay: SAR analysis of agonists of the Cannabinoid Receptor 2 using an Image-Based Assay - Set 3. [Related pubchem assays (depositor defined):AID2013, AID2026]; type: functional
# [12] = target: G-protein coupled receptor 55 (Homo sapiens, UniProt Q9Y2T6); assay: SAR Analysis of Selective Antagonists of GPR55 using an Image-Based Assay - Set 4. [Related pubchem assays (depositor defined):AID2013, AID2026]; type: functional;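 further: antagonism of response to 5 µM lysophosphatidylinositol agonist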
# [13] = target: T2, G-protein coupled receptor 35; assay: SAR analysis of Agonists of the GPR35 Receptor using an Image-Based Assay - Set 4. [Related pubchem assays (depositor defined):AID2013, AID2026]; type: functional
# [14] = system: HEK293; assay: cells; conditions: Homo sapiens
# [15] = system: HEK293; assay: cells; conditions: Homo sapiens; remark: listed apart in the source
# [16] = decrease of insulin promoter-GFP reporter – imaging, high-content screening, mouse beta cells (AID 1628); type: functional; conditions: MIN6
# [17] = MIN6 cell viability loss – mouse insulinoma, cytotoxicity control, dose response (AID 2122); type: functional;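 further: confirmatory high-throughput counterscreen run to flag cytotoxic compounds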
# [18] = target: Alkaline phosphatase, placental type (Homo sapiens, UniProt P05187); assay: human placental alkaline phosphatase inhibition – biochemical, luminescence, confirmation (AID 1512); type: functional
# [19] = target: T4, Alkaline phosphatase, tissue-nonspecific isozyme (Homo sapiens, UniProt P05186); assay: potency against alkaline phosphatase TNAP – biochemical, luminescent, dose response, SAR follow-up (AID 1056)
# T4 sequence (P05186 whole entry): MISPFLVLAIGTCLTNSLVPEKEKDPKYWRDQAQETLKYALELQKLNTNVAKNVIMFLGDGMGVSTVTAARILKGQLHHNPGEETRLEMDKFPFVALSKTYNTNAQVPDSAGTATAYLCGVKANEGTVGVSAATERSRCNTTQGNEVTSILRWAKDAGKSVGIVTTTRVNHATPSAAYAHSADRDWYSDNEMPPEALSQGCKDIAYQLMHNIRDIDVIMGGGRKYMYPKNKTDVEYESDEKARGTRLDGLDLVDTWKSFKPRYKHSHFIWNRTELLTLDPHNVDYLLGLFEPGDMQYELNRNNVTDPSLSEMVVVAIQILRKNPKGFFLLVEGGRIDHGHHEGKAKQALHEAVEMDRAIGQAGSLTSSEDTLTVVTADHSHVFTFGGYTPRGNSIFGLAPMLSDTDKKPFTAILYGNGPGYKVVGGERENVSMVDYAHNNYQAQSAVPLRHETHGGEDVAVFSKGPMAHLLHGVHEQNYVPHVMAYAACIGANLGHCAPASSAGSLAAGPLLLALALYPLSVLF
# [20] = target: Glyceraldehyde-3-phosphate dehydrogenase (Homo sapiens, UniProt P04406)
# [21] = system: Escherichia coli; assay: microbe, parasite or virus in culture
# [22] = blockers of HIV-1 envelope-mediated cell-cell fusion – cherry-pick, dose response (AID 652057); type: functional, cell-based
# [23] = blockers of HIV-1 ZM109 envelope-driven cell-cell fusion – HeLa effector, CEM target cells, luciferase, cherry-pick, dose response (AID 652058); type: functional, cell-based;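 further: luciferase signal from HIV-1 Env mediated cell-cell fusion of effector and target cells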
# [24] = off-target signal loss in HeLa-CEM21 co-culture – HeLa F-luc CTL cells, cherry-picked, counter-screen for HIV-1 Env fusion inhibitor project, dose response (AID 652040); type: functional, cell-based;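 further: potency for signal decrease marking cytotoxic or nonspecific inhibition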
# [25] = viability loss in CEM21 cells – cell-based, CellTiter-Glo luminescence, cherry-picked, cytotoxicity control for viral fusion inhibitor project, dose response (AID 652042); type: functional;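 further: potency for signal decrease meaning cytotoxicity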
# [26] = HIV-1 AD8 envelope cell-cell fusion blockers – cherry-pick, dose response (AID 652062); type: functional, cell-based;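 further: luciferase signal from cell-cell fusion driven by HIV-1 clade B AD8 Env; potency is for inhibitors of fusion seen as a drop in luminescence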
# [27] = NIH3T3 cell viability loss – ATP luminescence, mouse fibroblasts, counter-screen, dose response (AID 2010); type: functional, cell-based;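 further: cells exposed to compound for about 90 hours before reading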
# [28] = system: INS1; assay: INS-1E survival protection against cytokine death – cell-based, luminescence, retest, dose response (AID 449756); type: functional; conditions: Rattus norvegicus;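 further: cell death triggered by IL-1 beta plus TNF-alpha plus IFN-gamma mixture; protective hits raise ATP signal compared with cytokine alone wells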
# [29] = Trypanosoma cruzi growth suppression in host cells – NIH3T3 host cells, beta-gal luminescence, confirmation (AID 2044); type: functional, cell-based;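 further: intracellular parasites grown in NIH/3T3 mouse fibroblasts as host cells; luminescent beta-galactosidase reporter signal from transgenic T. cruzi replicating inside host cells; inhibitors lower the luminescence signal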
# [30] = target: T5, Corticotropin-releasing factor receptor 2/Corticotropin-releasing factor-binding protein (Homo sapiens, UniProt P24387+Q13324); assay: activators of CRF receptor 2 with binding protein – uHTS hits, confirmation (AID 602473); type: functional; conditions: read-out: EC50_Mean
# T5 sequence (Q13324 whole entry): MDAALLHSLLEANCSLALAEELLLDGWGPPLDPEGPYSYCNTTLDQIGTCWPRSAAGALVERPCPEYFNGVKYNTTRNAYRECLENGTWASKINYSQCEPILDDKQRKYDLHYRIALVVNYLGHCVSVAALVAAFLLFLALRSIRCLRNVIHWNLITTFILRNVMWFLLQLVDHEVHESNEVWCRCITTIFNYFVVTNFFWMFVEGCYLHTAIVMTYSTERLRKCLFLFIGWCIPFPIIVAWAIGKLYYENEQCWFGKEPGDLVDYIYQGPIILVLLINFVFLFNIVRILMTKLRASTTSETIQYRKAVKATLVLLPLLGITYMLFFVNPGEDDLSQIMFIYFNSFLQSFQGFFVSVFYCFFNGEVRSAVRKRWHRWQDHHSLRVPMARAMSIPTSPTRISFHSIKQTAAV
# T5 sequence (P24387 whole entry): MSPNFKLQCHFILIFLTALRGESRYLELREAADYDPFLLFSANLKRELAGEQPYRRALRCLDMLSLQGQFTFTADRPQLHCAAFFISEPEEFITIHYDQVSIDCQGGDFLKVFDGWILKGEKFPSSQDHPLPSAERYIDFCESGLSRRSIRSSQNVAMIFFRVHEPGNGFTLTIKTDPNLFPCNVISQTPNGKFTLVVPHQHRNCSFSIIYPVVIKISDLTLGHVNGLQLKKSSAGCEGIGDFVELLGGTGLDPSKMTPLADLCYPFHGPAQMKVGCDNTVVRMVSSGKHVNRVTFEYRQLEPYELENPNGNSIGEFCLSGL
# [31] = target: T5, Corticotropin-releasing factor receptor 2/Corticotropin-releasing factor-binding protein; assay: Dose Response confirmation of uHTS hits for small molecule antagonists of the CRF-binding protein and CRF-R2 receptor complex.; type: functional; conditions: read-out: IC50_Mean
# [32] = target: T6, ORF 73 (Human herpesvirus 8, UniProt O40947); assay: KSHV LANA DNA-binding disruption – biochemical, fluorescence polarization, cherry-picked samples, dose response (AID 504725); parameters: species or system Human gammaherpesvirus 8;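 further: fluorescence polarization of a labeled DNA duplex reporting LANA DNA binding; potency is for inhibitors that block LANA binding to the DNA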
# T6 sequence (O40947 whole entry): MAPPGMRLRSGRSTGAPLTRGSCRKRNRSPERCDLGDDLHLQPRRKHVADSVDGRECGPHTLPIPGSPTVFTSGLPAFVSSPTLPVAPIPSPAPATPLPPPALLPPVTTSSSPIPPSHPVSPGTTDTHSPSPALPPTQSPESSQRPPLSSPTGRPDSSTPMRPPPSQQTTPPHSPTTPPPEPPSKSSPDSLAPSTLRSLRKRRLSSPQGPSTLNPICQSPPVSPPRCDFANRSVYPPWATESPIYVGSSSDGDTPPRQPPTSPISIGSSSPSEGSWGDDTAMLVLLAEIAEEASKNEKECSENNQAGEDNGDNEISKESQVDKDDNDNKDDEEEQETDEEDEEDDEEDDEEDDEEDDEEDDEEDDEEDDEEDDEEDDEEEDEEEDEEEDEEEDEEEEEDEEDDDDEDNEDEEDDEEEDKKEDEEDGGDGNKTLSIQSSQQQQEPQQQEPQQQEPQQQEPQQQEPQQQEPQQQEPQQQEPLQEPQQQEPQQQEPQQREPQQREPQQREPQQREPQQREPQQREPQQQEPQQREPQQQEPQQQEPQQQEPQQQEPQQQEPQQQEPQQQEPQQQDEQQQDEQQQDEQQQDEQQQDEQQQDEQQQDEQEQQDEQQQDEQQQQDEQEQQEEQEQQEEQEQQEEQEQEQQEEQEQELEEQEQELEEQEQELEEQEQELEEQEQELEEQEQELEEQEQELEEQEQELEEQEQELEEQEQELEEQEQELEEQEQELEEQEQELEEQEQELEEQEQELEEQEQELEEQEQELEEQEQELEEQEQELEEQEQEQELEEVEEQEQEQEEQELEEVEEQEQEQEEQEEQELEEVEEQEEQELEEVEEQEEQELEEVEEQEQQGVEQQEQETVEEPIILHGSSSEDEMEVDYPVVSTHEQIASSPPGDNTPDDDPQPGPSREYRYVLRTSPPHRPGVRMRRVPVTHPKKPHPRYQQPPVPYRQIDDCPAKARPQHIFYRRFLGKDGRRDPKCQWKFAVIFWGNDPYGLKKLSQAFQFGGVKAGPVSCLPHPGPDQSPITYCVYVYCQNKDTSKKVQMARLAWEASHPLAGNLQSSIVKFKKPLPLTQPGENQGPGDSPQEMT
# [33] = target: Keap1/Nrf2 (Homo sapiens, UniProt Q14145); assay: disruptors of Keap1 binding to Nrf2 peptide – biochemical, fluorescence polarization, cherry-picked samples, dose response (AID 588683)
# Sequence of Keap1/Nrf2 (Q16236 whole entry): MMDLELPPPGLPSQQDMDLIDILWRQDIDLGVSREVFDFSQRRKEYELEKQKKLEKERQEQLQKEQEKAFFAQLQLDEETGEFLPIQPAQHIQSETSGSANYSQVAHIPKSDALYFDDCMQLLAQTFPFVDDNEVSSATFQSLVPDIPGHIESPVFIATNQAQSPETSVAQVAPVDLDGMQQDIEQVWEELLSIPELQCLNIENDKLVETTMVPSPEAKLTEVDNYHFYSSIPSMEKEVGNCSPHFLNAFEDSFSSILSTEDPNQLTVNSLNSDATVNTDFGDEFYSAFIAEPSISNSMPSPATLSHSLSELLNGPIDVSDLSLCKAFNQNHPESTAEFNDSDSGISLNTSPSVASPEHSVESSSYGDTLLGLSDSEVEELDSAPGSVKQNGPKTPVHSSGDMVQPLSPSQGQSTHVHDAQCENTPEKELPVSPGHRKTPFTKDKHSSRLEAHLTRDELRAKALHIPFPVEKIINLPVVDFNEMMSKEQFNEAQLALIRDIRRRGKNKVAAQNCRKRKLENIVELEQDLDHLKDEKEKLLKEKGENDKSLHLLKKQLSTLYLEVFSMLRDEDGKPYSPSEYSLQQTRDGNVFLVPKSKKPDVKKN
# Sequence of Keap1/Nrf2 (Q14145 whole entry): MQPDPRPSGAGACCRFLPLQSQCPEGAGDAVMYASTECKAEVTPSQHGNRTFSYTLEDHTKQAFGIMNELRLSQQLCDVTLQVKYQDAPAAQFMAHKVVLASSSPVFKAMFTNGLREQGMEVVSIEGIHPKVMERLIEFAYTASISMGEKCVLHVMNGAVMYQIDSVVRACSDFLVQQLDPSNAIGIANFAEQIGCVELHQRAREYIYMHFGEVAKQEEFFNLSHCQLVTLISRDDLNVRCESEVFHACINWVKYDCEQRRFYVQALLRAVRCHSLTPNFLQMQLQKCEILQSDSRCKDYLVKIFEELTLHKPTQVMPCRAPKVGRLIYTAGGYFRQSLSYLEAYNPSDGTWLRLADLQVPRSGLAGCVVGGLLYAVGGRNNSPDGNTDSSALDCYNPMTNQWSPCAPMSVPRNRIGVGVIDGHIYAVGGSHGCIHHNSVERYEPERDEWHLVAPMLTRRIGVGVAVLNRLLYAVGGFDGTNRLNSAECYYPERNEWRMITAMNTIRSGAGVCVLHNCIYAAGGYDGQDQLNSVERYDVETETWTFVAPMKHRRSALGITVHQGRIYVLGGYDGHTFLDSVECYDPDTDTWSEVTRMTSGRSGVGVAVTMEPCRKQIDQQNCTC
# T2 sequence (Q9HC97 whole entry): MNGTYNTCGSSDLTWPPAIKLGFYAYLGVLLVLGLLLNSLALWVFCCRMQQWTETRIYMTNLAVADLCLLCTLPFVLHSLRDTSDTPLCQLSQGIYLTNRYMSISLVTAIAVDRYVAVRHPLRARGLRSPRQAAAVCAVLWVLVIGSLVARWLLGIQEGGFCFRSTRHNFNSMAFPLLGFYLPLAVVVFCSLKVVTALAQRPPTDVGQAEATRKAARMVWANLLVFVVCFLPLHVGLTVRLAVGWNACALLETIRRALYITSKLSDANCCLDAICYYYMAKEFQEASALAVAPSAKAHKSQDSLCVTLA
# T1 sequence (P21554 whole entry): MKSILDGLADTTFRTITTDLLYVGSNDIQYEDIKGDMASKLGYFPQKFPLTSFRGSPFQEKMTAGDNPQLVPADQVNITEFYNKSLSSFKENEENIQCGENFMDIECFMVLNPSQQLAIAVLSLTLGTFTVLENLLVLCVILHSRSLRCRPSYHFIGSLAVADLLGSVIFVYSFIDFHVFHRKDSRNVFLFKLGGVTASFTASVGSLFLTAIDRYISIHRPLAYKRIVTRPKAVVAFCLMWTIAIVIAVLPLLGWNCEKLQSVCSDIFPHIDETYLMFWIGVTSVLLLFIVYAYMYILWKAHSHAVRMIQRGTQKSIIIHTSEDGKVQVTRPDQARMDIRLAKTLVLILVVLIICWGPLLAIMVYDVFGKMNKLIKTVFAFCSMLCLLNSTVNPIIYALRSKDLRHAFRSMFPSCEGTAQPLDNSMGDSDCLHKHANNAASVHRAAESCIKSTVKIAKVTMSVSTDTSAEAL
# T3 sequence (P34972 whole entry): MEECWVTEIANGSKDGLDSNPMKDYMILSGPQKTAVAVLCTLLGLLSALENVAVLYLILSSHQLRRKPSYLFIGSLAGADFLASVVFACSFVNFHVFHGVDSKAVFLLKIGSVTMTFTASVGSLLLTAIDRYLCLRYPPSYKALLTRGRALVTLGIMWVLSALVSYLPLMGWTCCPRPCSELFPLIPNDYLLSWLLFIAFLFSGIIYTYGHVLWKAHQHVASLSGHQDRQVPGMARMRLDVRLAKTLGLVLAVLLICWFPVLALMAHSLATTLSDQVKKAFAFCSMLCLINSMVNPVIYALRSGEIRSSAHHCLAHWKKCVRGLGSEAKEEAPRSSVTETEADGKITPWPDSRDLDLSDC
# Sequence of G-protein coupled receptor 55 (Q9Y2T6 whole entry): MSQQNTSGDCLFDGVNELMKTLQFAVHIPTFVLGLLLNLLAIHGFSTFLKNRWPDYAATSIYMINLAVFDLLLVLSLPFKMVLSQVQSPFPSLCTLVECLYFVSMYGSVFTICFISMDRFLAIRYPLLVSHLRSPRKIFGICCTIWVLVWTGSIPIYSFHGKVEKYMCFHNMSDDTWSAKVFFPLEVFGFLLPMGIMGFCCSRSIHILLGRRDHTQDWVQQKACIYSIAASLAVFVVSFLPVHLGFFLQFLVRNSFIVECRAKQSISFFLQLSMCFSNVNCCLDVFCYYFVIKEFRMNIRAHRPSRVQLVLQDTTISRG
# Sequence of ATP-dependent molecular chaperone HSP82 (C4YTQ8 whole entry): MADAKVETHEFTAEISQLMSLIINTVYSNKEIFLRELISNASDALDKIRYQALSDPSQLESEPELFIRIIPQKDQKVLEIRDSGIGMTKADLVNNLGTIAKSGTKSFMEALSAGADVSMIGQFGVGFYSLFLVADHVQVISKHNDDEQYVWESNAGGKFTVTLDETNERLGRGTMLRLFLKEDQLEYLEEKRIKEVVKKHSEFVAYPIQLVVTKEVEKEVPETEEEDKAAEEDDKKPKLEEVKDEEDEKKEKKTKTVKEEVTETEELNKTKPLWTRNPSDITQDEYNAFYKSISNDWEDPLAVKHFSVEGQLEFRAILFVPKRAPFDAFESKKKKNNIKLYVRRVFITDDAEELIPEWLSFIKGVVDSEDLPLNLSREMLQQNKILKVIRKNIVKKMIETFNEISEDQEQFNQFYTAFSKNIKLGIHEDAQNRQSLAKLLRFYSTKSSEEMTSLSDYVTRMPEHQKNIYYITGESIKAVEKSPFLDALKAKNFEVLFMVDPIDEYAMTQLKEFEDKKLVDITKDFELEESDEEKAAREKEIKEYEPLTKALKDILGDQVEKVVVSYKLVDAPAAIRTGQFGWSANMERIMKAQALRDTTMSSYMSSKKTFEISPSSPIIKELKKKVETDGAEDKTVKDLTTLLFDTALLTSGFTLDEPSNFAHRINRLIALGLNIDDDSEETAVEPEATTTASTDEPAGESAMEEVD
# Sequence of Serine/threonine-protein phosphatase (B9W6M3 whole entry): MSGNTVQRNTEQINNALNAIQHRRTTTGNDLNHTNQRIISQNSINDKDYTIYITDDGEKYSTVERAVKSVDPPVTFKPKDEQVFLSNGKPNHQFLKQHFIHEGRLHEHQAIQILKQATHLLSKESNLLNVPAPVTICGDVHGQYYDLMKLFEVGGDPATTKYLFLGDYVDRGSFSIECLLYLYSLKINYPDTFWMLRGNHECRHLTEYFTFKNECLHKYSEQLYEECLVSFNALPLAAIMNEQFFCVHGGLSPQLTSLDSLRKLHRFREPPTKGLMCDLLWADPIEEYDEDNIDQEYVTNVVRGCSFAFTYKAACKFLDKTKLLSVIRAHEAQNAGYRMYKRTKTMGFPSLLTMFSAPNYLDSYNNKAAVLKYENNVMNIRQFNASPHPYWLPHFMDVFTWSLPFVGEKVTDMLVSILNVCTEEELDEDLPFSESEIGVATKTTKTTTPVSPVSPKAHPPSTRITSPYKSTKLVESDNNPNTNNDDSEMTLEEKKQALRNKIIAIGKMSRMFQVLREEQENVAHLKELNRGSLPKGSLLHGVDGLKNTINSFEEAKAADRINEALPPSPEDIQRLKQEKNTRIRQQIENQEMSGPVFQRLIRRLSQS
# Sequence of Glyceraldehyde-3-phosphate dehydrogenase (P04406 whole entry): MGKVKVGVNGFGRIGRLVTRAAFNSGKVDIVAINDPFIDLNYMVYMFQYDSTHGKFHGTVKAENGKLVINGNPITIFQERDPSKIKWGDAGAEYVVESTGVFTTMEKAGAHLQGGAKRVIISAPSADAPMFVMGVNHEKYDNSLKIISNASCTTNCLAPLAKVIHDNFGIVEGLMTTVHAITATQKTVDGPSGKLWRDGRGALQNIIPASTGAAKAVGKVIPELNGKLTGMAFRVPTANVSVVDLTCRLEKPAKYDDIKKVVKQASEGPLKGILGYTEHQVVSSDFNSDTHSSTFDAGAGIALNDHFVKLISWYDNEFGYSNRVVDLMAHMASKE
# Sequence of Alkaline phosphatase, placental type (P05187 whole entry): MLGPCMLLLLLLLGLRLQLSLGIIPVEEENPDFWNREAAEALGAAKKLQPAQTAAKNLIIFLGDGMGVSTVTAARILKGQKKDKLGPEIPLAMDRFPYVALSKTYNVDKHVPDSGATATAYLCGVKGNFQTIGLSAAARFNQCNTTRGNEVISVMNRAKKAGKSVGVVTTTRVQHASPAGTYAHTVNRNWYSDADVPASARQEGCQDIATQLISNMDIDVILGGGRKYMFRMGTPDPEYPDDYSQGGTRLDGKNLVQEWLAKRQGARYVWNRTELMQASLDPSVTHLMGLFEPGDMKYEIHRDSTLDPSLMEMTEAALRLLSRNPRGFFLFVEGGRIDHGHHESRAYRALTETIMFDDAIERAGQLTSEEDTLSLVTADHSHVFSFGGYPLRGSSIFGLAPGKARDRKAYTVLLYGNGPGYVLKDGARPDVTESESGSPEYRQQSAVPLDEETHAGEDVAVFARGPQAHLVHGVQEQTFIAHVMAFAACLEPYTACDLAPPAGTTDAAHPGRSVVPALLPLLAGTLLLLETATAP
compound,measurement,setting,value
CCc1cc(C(=O)NN=C(S)Nc2cc(C)ccc2C)cs1,EC50,[1],> 180 µM (inactive)
same,EC50,[2],> 150 µM (inactive)
same,EC50,[3],0.382 µM (active)
same,EC50,[4],> 150 µM (inactive)
O=C(CN(C1CCCCC1)C1CCCCC1)N1CCc2ccccc2C1,EC50,[5],4.36 µM (active)
same,AC50,[6],204 µM (active)
O=C(N1CCC(n2nc(-c3ccccc3)oc2=O)CC1)C1(c2ccccc2)CC1,IC50,[7],8.64 µM (active)
same,EC50,[8],> 32 µM (inactive)
same,IC50,[9],> 32 µM (inactive)
same,IC50,[10],> 32 µM (inactive)
same,EC50,[11],> 32 µM (inactive)
same,IC50,[12],17.4 µM (inactive)
same,EC50,[13],> 32 µM (inactive)
O=C1CN(c2nc(-c3cccnc3)nc3sc4c(c23)CCCC4)CCN1,EC50,[14],> 59.6 µM (inactive)
same,EC50,[15],> 59.6 µM (inactive)
Cc1ccc(-c2cc(C(F)F)n3ncc(C(=O)NN4CCCCC4)c3n2)cc1,IC50,[16],2.39 µM (active)
same,IC50,[17],6.4 µM (active)
Cc1cc(C)cc(Nc2nc(-c3ccc(S(=O)(=O)N4CCCC4)cc3)cs2)c1,AC50,[6],> 350 µM (inactive)
Cc1ccc(-c2nnc(C)c3nn(-c4ccccc4)cc23)cc1,IC50,[7],4.61 µM (active)
same,EC50,[8],> 32 µM (inactive)
same,IC50,[9],> 32 µM (inactive)
same,IC50,[10],> 32 µM (inactive)
same,EC50,[11],> 32 µM (inactive)
same,IC50,[12],> 32 µM (inactive)
same,EC50,[13],> 32 µM (inactive)
COc1cc(CCc2nc(N)nn2-c2ccccc2)cc(OC)c1OC,IC50,[18],> 100 µM (inactive)
same,IC50,[19],> 100 µM (inactive)
same,IC50,[20],> 100 µM (not active)
CC1CCc2c(N3CCC(O)CC3)c(F)cc3c(=O)c(C(=O)O)cn1c23 (stereo unspecified) [NADIFLOXACIN],AC50,[21],1.3 µM (active)
COC(=O)c1c(NC(=O)CN2CCC3(O)CCCCC3C2c2cc(OC)ccc2OC)sc(C)c1C (stereo unspecified),EC50,[14],> 59.7 µM (inactive)
same,AC50,[22],0.472 µM (active)
same,EC50,[15],> 59.7 µM (inactive)
same,AC50,[23],1.15 µM (active)
same,AC50,[24],1.21 µM (active)
same,AC50,[25],48.1 µM (active)
same,AC50,[26],3.62 µM (active)
Cc1ccc(-c2cn3c([n+]2-c2ccccc2)CCC3)cc1,IC50,[16],< 0.25 µM (active)
same,EC50,[27],> 60 µM (not active)
same,AC50,[28],2.5 µM (active)
same,EC50,[29],0.94 µM (active)
same,IC50,[17],< 0.25 µM (active)
COC(=O)c1ccc(OC(=O)c2nn(C)cc2Cl)c(OC)c1,EC50,[30],> 53 µM (inactive)
same,AC50,[21],42.7 µM (active)
same,IC50,[31],> 47.1 µM (inactive)
"O=C(c1ccccc1)c1ccc(O)cc1O [2,4-DIHYDROXYBENZOPHENONE]",AC50,[32],5.38 µM (active)
same,AC50,[33],11.1 µM (active)
